Test results taken from US20260062426A1, “CYCLIN DEPENDENT KINASE DEGRADERS AND METHODS OF USE THEREOF” (Differentiated Therapeutics Inc, priority 2023, published 2026).

Key:
Type in all cases: cell-based
[1] = target: T1, CDK9 (Homo sapiens, UniProt P50750); assay: CDK9 HIBIT PQ (protein quantification), degradation; settings: for Dmax: Max = Maximum; for DC50: PQ = Protein Quantification
T1 construct: host or cells: HEK293
Summary of the method: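 CDK9 protein was read by HiBiT assay in treated HEK293 cells carrying HiBiT-tagged CDK9, seeded at 1.6×10^5 cells/well in 50 uL in 384-well plates and incubated overnight at 37° C and 5% CO2. Controls were 0.1% DMSO-treated cells (high) and culture medium only (low). Maximal degradation, Dmax and DC50 were calculated from these readings.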

[2] = target: T2, CDK2 (Homo sapiens, UniProt P24941); assay: CDK2 HIBIT PQ (protein quantification), degradation; settings: for CDK2 HIBIT PQ Max (%): Max = Maximum; for DC50: PQ = Protein Quantification
T2 construct: host or cells: HEK293
Summary of the method: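 After overnight incubation at 37° C and 5% CO2 in 384-well plates (1.6×10^5 cells/well, 50 uL, DMEM with 10% FBS), HEK293 cells with HiBiT-tagged CDK2 were treated with compound for 6 hours. Detection used 20 μL of Nano-Glo HiBiT lytic reagent with LgBiT protein, 20 minutes of shaking at room temperature and an EnVision reading, with 0.1% DMSO as high control and medium alone as low control. These readings were the basis for DC50 and maximal degradation.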

[3] = target: T3, CCNE1 (Homo sapiens, UniProt P24864+P24941); assay: CCNE1 HIBIT PQ (protein quantification), degradation; settings: for CCNE1 HIBIT PQ Max (%): Max = Maximum; for DC50: PQ = Protein Quantification
T3 construct: host or cells: HEK293
Summary of the method: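 For DC50 and maximal degradation, CCNE1 protein was quantified with a HiBiT assay in HEK293 cells carrying HiBiT-tagged CCNE1. Cells in EMEM with 10% FBS went into 384-well plates at 1.6×10⁵ cells/well in 50 uL, stayed overnight at 37° C and 5% CO₂, and then received compound for 6 hours. Readings were referenced to 0.1% DMSO-treated cells as the high control and culture medium only as the low control.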

T1 sequence (P50750 whole entry): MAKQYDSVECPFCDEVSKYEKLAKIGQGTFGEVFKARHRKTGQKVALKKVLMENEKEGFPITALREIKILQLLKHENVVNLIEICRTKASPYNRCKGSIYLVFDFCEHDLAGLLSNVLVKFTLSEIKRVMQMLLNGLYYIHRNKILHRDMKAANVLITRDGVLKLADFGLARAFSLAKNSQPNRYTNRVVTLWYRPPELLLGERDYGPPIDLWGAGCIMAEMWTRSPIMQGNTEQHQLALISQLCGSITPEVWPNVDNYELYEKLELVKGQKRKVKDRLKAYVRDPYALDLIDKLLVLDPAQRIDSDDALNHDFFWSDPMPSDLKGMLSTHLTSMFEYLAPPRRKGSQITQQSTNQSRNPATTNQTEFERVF

Structure (SMILES) | Dmax [1] | DC50 [1] | CDK2 HIBIT PQ Max (%) [2] | CCNE1 HIBIT PQ Max (%) [3] | DC50 [2] | DC50 [3]
CC(C)Oc1c(-c2cn[nH]c2)ncn2nc(NC3CCN(S(=O)(=O)c4cccc(CN5CC6(C5)CN(c5ccc7c(c5)CN(C5CCC(=O)NC5=O)C7=O)C6)c4)CC3)nc12 (racemic) [Compound 2] | 92% | 25.7 nM | 46% | 41% |  | 
CC(C)Oc1c(-c2cn[nH]c2)ncn2nc(NC3CCN(S(=O)(=O)c4cccc(CN5CCN(c6cc7c(cc6F)C(=O)N(C6CCC(=O)NC6=O)C7)CC5)c4)CC3)nc12 (racemic) [Compound 3] | 102% | 19.4 nM | 66% | 64% | 3.12 nM | 8.88 nM
CC(C)Oc1c(-c2cn[nH]c2)ncn2nc(NC3CCN(S(=O)(=O)c4cccc(CN5CC(c6ccc7c(c6)CN(C6CCC(=O)NC6=O)C7=O)C5)c4)CC3)nc12 (racemic) [Compound 4] | 4% |  | 63% | 65% | 4.14 nM | 7.1 nM
CC(C)Oc1c(-c2cn[nH]c2)ncn2nc(NC3CCN(S(=O)(=O)N4CCC(CN5CCC(c6cccc7c6n(C)c(=O)n7C6CCC(=O)NC6=O)CC5)CC4)CC3)nc12 (racemic) [Compound 6, rac-(R)-3-(4-(1-((1-((4-((8-isopropoxy-7-(1H-pyrazol-4-yl)-[1,2,4]triazolo[1,5-c]pyrimidin-2-yl)amino)piperidin-1-yl)sulfonyl)piperidin-4-yl)methyl)piperidin-4-yl)-3-methyl-2-oxo-2,3-dihydro-1H-benzo[d]imidazol-1-yl)piperidine-2,6-dione] | 103% | 1.48 nM | 80% | 73% | 0.59 nM | 0.88 nM
CC(C)Oc1c(-c2cn[nH]c2)ncn2nc(Nc3ccc(S(=O)(=O)c4cccc(N5CCN(CC6CCN(c7ccc8c(c7)CN(C7CCC(=O)NC7=O)C8=O)CC6)CC5)c4)cc3F)nc12 (racemic) [Compound 9] | 97% | 11.7 nM | 89% | 72% | 1.44 nM | 6.38 nM
CC(C)Oc1c(-c2cn[nH]c2)ncn2nc(Nc3ccc(S(=O)(=O)c4cccc(CN5CC6(C5)CN(c5ccc7c(c5)CN(C5CCC(=O)NC5=O)C7=O)C6)c4)cc3F)nc12 (racemic) [Compound 10] | 54% | 25.5 nM | 86% | 60% | 3.76 nM | 10.6 nM
CC(C)Oc1c(-c2cn[nH]c2)ncn2nc(Nc3ccc(S(=O)(=O)c4cccc(CN5CCN(c6cc7c(cc6F)C(=O)N(C6CCC(=O)NC6=O)C7)CC5)c4)cc3F)nc12 (racemic) [Compound 11] | 50% |  | 90% | 65% | 2.25 nM | 14.4 nM
CC(C)Oc1c(-c2cn[nH]c2)ncn2nc(Nc3ccc(S(=O)(=O)c4cccc(CN5CC(c6ccc7c(c6)CN(C6CCC(=O)NC6=O)C7=O)C5)c4)cc3F)nc12 (racemic) [Compound 12] | 8% |  | 89% | 62% | 2.2 nM | 4.06 nM
CC(C)Oc1c(-c2cn[nH]c2)ncn2nc(Nc3ccc(S(=O)(=O)c4cccc(CN5CCC(c6cccc7c6n(C)c(=O)n7C6CCC(=O)NC6=O)CC5)c4)cc3F)nc12 (racemic) [Compound 13] | 53% | 6.6 nM | 85% | 44% | 0.42 nM | 
CC(C)Oc1c(-c2cn[nH]c2)ncn2nc(Nc3ccc(S(=O)(=O)N4CCC(CN5CCC(c6cccc7c6n(C)c(=O)n7C6CCC(=O)NC6=O)CC5)CC4)cc3F)nc12 (racemic) [Compound 14, rac-(R)-3-(4-(1-((1-((3-fluoro-4-((8-isopropoxy-7-(1H-pyrazol-4-yl)-[1,2,4]triazolo[1,5-c]pyrimidin-2-yl)amino)phenyl)sulfonyl)piperidin-4-yl)methyl)piperidin-4-yl)-3-methyl-2-oxo-2,3-dihydro-1H-benzo[d]imidazol-1-yl)piperidine-2,6-dione] | 74% | 1.12 nM | 70% | 33% | 0.24 nM | 
CC(C)Oc1c(-c2cn[nH]c2)ncn2nc(Nc3ccc(S(=O)(=O)N(C)CCCN4CCC(c5ccc6c(c5)n(C)c(=O)n6[C@H]5CCC(=O)NC5=O)CC4)cc3F)nc12 (racemic) [Compound 16] | 94% | 0.52 nM | 91% | 79% | < 0.152 nM | 0.21 nM
CC(C)Oc1c(-c2cn[nH]c2)ncn2nc(Nc3ccc(S(=O)(=O)N(C)CCCN4CCN(c5cccc6c5n(C)c(=O)n6C5CCC(=O)NC5=O)CC4)cc3F)nc12 (racemic) [Compound 17] | 77% | 2.7 nM | 91% | 83% | 0.26 nM | 0.94 nM
CC(C)Oc1c(-c2cn[nH]c2)ncn2nc(Nc3ccc(S(=O)(=O)N(C)CCCN4CCC(c5cccc6c5n(C)c(=O)n6C5CCC(=O)NC5=O)CC4)cc3F)nc12 (racemic) [Compound 18] | 87% | 2.19 nM | 90% | 82% | 0.6 nM | 0.64 nM
CC(C)Oc1c(-c2cn[nH]c2)ncn2nc(NC3CCN(S(=O)(=O)N(C)CCCN4CCC(c5cccc6c5n(C)c(=O)n6C5CCC(=O)NC5=O)CC4)CC3)nc12 (racemic) [Compound 19] | 77% | 3.8 nM | 90% | 85% | 0.87 nM | 0.77 nM
CC(C)Oc1c(-c2cn[nH]c2)ncn2nc(Nc3ccc(S(=O)(=O)c4cccc(N5CCC(CN6CCN(c7ccc8c(c7)CN(C7CCC(=O)NC7=O)C8=O)CC6)CC5)c4)cc3F)nc12 (racemic) [Compound 22] | 97% | 16.1 nM | 93% | 71% | 1.7 nM | 10.9 nM
CC(C)Oc1c(-c2cn[nH]c2)ncn2nc(Nc3ccc(S(=O)(=O)c4cccc(OC5CN(C6CCN(c7ccc8c(c7)CN(C7CCC(=O)NC7=O)C8=O)CC6)C5)c4)cc3F)nc12 (racemic) [Compound 23] | 61% | 10.6 nM | 87% | 42% | 1.1 nM | 
CC(C)Oc1c(-c2cn[nH]c2)ncn2nc(Nc3ccc(S(=O)(=O)c4cccc(CN5CCC(c6ccc7c(c6)n(C)c(=O)n7C6CCC(=O)NC6=O)CC5)c4)cc3F)nc12 (racemic) [Compound 25] | 41% |  | 81% | 21% | 0.2 nM | 
CC(C)Oc1c(-c2cn[nH]c2)ncn2nc(Nc3ccc(S(=O)(=O)N(C)CCCN4CCC(c5cccc6c5n(C)c(=O)n6C5CCC(=O)N(C)C5=O)CC4)cc3F)nc12 (racemic) [Compound 28] | 2% |  | 6% | 0% |  | 
CC(C)Oc1c(-c2cn[nH]c2)ncn2nc(Nc3ccc(S(=O)(=O)c4cccc(CN5CCN(c6ccc7c(N8CCC(=O)NC8=O)nn(C)c7c6)CC5C(C)C)c4)cc3F)nc12 (single isomer, unassigned) [Compound 106] |  |  | 94% | 59% | 8.3 nM | 39.4 nM
CC(C)Oc1c(-c2cn[nH]c2)ncn2nc(Nc3ccc(S(=O)(=O)c4cccc(CN5CCN(c6ccc7c(N8CCC(=O)NC8=O)nn(C)c7c6)CC5C(C)C)c4)cc3F)nc12 (single isomer, unassigned) [Compound 107] |  |  | 93% | 71% | 12 nM | 63.1 nM
